Measured values taken from US20250325534A1, “MICROBIOCIDAL TETRAHYDROISOQUINOLINE DERIVATIVES” (SYNGENTA CROP PROTECTION AG, priority 2021, published 2025).

Columns and labels:
[1] = test system: Monographella nivalis; assay: Monographella nivalis (Microdochium nivale) / liquid culture (foot rot cereals); format: cell-based; conditions: 96 h, photometrically 4-5 days after application, read-out: control of Monographella nivalis
Outline: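 Microdochium nivale conidia in potato dextrose broth were added to test compound in DMSO and incubated at 24° C. Growth inhibition was measured photometrically 4-5 days after application.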

[2] = test system: Alternaria solani; assay: Alternaria solani / tomato / leaf disc (early blight); format: in vivo; conditions: foliar, inoculated 2 days after application, vs untreated control
[3] = test system: Mycosphaerella arachidis; assay: Mycosphaerella arachidis (Cercospora arachidicola) / liquid culture (early leaf spot); format: cell-based; conditions: 96 h, photometrically 4-5 days after application, read-out: control of Mycosphaerella arachidis
Outline: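 Cryostored M. arachidis conidia in potato dextrose broth were added to compound applied as DMSO solution. Incubated at 24 °C; growth inhibition measured photometrically 4-5 days after application.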

[4] = test system: Glomerella lagenarium; assay: Glomerella lagenarium (Colletotrichum lagenarium) / liquid culture (anthracnose); format: cell-based; conditions: Colletotrichum orbiculare, 72 h, photometrically 3-4 days after application, read-out: control of Glomerella lagenarium
Outline: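 Conidia in potato dextrose broth added to test compound delivered as DMSO solution in microtiter plates; incubation at 24° C. Growth inhibition read photometrically 3-4 days after application.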

[5] = test system: Mycosphaerella graminicola; assay: Mycosphaerella graminicola (Septoria tritici) / liquid culture (Septoria blotch); format: cell-based; conditions: Zymoseptoria tritici, 96 h, photometrically 4-5 days after application, read-out: control of Mycosphaerella graminicola
Outline: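 Conidia from cryogenic storage mixed into potato dextrose broth, added to test compound in DMSO. Plates incubated at 24° C; growth inhibition read photometrically 4-5 days after application.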

[6] = test system: Botryotinia fuckeliana; assay: Botryotinia fuckeliana (Botrytis cinerea) / liquid culture (gray mould); format: cell-based; conditions: 72 h, growth inhibition photometrically 3-4 days after application, read-out: control of Botryotinia fuckeliana
Method: Example B2: Botryotinia Fuckeliana (Botrytis cinerea)/Liquid Culture (Gray Mould) Conidia of the fungus from cryogenic storage are directly mixed into a nutrient broth (Vogels broth). After placing a DMSO solution of test compound into a microtiter plate (96-well format), the nutrient broth containing the fungal spores is added. The test plates are incubated at 24° C. and the inhibition of growth is determined photometrically 3-4 days after application.

[7] = test system: Pyrenophora teres; assay: Pyrenophora teres / barley / leaf disc preventative (net blotch); format: in vivo; conditions: foliar, inoculated 2 days after application
Method: Example B16: Pyrenophora teres/Barley/Leaf Disc Preventative (Net Blotch) Barley leaf segments cv. Hasso are placed on agar in a multiwell plate (24-well format) and sprayed with the formulated test compound diluted in water. The leaf segments are inoculated with a spore suspension of the fungus 2 days after application. The inoculated leaf segments are incubated at 20° C. and 65% relative humidity under a light regime of 12 h light/12 h darkness in a climate cabinet and the activity of a compound is assessed as disease control compared to untreated when an appropriate level of disease damage appears in untreated check leaf segments (5-7 days after application).

[8] = test system: Blumeria graminis f. sp. tritici; assay: Blumeria graminis f. sp. tritici / wheat / leaf disc preventative (powdery mildew); format: in vivo; conditions: foliar, inoculated 1 day after application
Method: Example B7: Blumeria graminis f. Sp. Tritici (Erysiphe graminis f. Sp. Tritici)/Wheat/Leaf Disc Preventative (Powdery Mildew on Wheat) Wheat leaf segments cv. Kanzler are placed on agar in a multiwell plate (24-well format) and sprayed with the formulated test compound diluted in water. The leaf disks are inoculated by shaking powdery mildew infected plants above the test plates 1 day after application. The inoculated leaf disks are incubated at 20° C. and 60% relative humidity under a light regime of 24 h darkness followed by 12 h light/12 h darkness in a climate chamber and the activity of a compound is assessed as percent disease control compared to untreated when an appropriate level of disease damage appears on untreated check leaf segments (6-8 days after application).

[9] = test system: Phaeosphaeria nodorum; assay: Phaeosphaeria nodorum (Septoria nodorum) / wheat / leaf disc preventative (glume blotch); format: in vivo; conditions: Parastagonospora nodorum, foliar, inoculated 2 days after application
Method: Example B9: Phaeosphaeria nodorum (Septoria nodorum)/Wheat/Leaf Disc Preventative (Glume Blotch) Wheat leaf segments cv. Kanzler are placed on agar in a multiwell plate (24-well format) and sprayed with the formulated test compound diluted in water. The leaf disks are inoculated with a spore suspension of the fungus 2 days after application. The inoculated test leaf disks are incubated at 20° C. and 75% relative humidity under a light regime of 12 h light/12 h darkness in a climate cabinet and the activity of a compound is assessed as percent disease control compared to untreated when an appropriate level of disease damage appears in untreated check leaf disks (5-7 days after application).

[10] = test system: Puccinia recondita f. sp. tritici; assay: Puccinia recondita f. sp. tritici / wheat / leaf disc preventative (brown rust); format: in vivo; conditions: foliar, inoculated 1 day after application
Method: Example B14: Puccinia recondita f. Sp. Tritici/Wheat/Leaf Disc Preventative (Brown Rust) Wheat leaf segments cv. Kanzler are placed on agar in multiwell plates (24-well format) and sprayed with the formulated test compound diluted in water. The leaf disks are inoculated with a spore suspension of the fungus 1 day after application. The inoculated leaf segments are incubated at 19° C. and 75% relative humidity under a light regime of 12 h light/12 h darkness in a climate cabinet and the activity of a compound is assessed as percent disease control compared to untreated when an appropriate level of disease damage appears in untreated check leaf segments (7-9 days after application).

CC1c2ccccc2C(c2cnn(C)c2)CN1C(=O)c1cc(-c2ccc(F)cc2F)on1 (centres unmarked) [Compound P-141, [5-(2,4-difluorophenyl)isoxazol-3-yl]-[1-methyl-4-(1-methylpyrazol-4-yl)-3,4-dihydro-1H-isoquinolin-2-yl]methanone]
≥ 80%: inhibition of growth at 20 ppm [1] | pest or weed control at 200 ppm [2] | inhibition of growth at 20 ppm [3] | inhibition of growth at 20 ppm [4] | inhibition of growth at 20 ppm [5] | inhibition of growth at 20 ppm [6] | pest or weed control at 200 ppm [7] | pest or weed control at 200 ppm [8] | pest or weed control at 200 ppm [9]

CC1c2ccccc2C(C)(c2cnn(C)c2F)CN1C(=O)c1cc(-c2ccc(F)cc2F)on1 (centres unmarked) [Compound P-11, [5-(2,4-difluorophenyl)isoxazol-3-yl]-[4-(5-fluoro-1-methyl-pyrazol-4-yl)-1,4-dimethyl-1,3-dihydroisoquinolin-2-yl]methanone]
≥ 80%: inhibition of growth at 20 ppm [1] | pest or weed control at 200 ppm [2] | inhibition of growth at 20 ppm [3] | inhibition of growth at 20 ppm [4] | inhibition of growth at 20 ppm [5] | inhibition of growth at 20 ppm [6] | pest or weed control at 200 ppm [8] | pest or weed control at 200 ppm [9]

Cc1c(C2CN(C(=O)c3nnc(-c4ccc(F)cc4)s3)Cc3ccccc32)cnn1C (centres unmarked) [Compound P-63, [4-(1,5-dimethylpyrazol-4-yl)-3,4-dihydro-1H-isoquinolin-2-yl]-[5-(4-fluorophenyl)-1,3,4-thiadiazol-2-yl]methanone]
≥ 80%: inhibition of growth at 20 ppm [1] | pest or weed control at 200 ppm [2] | inhibition of growth at 20 ppm [3] | inhibition of growth at 20 ppm [4] | inhibition of growth at 20 ppm [5] | inhibition of growth at 20 ppm [6] | pest or weed control at 200 ppm [7] | pest or weed control at 200 ppm [8] | pest or weed control at 200 ppm [9]

Cn1ncc(C2CN(C(=O)c3cc(-c4ccc(F)cc4F)on3)Cc3ccccc32)c1Br (centres unmarked) [Compound P-45, [4-(5-bromo-1-methyl-pyrazol-4-yl)-3,4-dihydro-1H-isoquinolin-2-yl]-[5-(2,4-difluorophenyl)isoxazol-3-yl]methanone]
≥ 80%: inhibition of growth at 20 ppm [1] | pest or weed control at 200 ppm [2] | inhibition of growth at 20 ppm [3] | inhibition of growth at 20 ppm [4] | inhibition of growth at 20 ppm [5] | inhibition of growth at 20 ppm [6] | pest or weed control at 200 ppm [7] | pest or weed control at 200 ppm [9]

Cc1c(C2CN(C(=O)c3cc(-c4ccccc4F)no3)Cc3ccccc32)cnn1C (centres unmarked) [Compound P-110, [4-(1,5-dimethylpyrazol-4-yl)-3,4-dihydro-1H-isoquinolin-2-yl]-[3-(2-fluorophenyl)isoxazol-5-yl]methanone]
≥ 80%: inhibition of growth at 20 ppm [1] | pest or weed control at 200 ppm [2] | inhibition of growth at 20 ppm [3] | inhibition of growth at 20 ppm [4] | inhibition of growth at 20 ppm [5] | inhibition of growth at 20 ppm [6] | pest or weed control at 200 ppm [7] | pest or weed control at 200 ppm [9]

C[C@H]1c2ccccc2[C@@](C)(c2cnn(C)c2)CN1C(=O)c1cc(-c2ccccc2)on1 [Compound P-2, [(1S,4S)-1,4-dimethyl-4-(1-methylpyrazol-4-yl)-1,3-dihydroisoquinolin-2-yl]-(5-phenylisoxazol-3-yl)methanone]
≥ 80%: inhibition of growth at 20 ppm [1] | pest or weed control at 200 ppm [2] | inhibition of growth at 20 ppm [3] | inhibition of growth at 20 ppm [5] | pest or weed control at 200 ppm [7] | pest or weed control at 200 ppm [9]

Cn1cc(C2CN(C(=O)c3cc(-c4c(F)cc(F)cc4F)on3)Cc3ccccc32)cn1 (centres unmarked) [Compound P-136, [4-(1-methylpyrazol-4-yl)-3,4-dihydro-1H-isoquinolin-2-yl]-[5-(2,4,6-trifluorophenyl)isoxazol-3-yl]methanone]
≥ 80%: inhibition of growth at 20 ppm [1] | pest or weed control at 200 ppm [2] | inhibition of growth at 20 ppm [5] | pest or weed control at 200 ppm [7] | pest or weed control at 200 ppm [9]

COc1ccc2c(c1)CN(C(=O)c1cc(-c3ccc(F)cc3F)on1)CC2c1cnn(C)c1 (centres unmarked) [Compound P-51, [5-(2,4-difluorophenyl)isoxazol-3-yl]-[7-methoxy-4-(1-methylpyrazol-4-yl)-3,4-dihydro-1H-isoquinolin-2-yl]methanone]
≥ 80%: inhibition of growth at 20 ppm [1] | pest or weed control at 200 ppm [2] | inhibition of growth at 20 ppm [3] | inhibition of growth at 20 ppm [4] | inhibition of growth at 20 ppm [5] | pest or weed control at 200 ppm [7] | pest or weed control at 200 ppm [9]

Cc1nn(C)c(C)c1C1CN(C(=O)c2cc(-c3ccccc3F)on2)Cc2ccccc21 (centres unmarked) [Compound P-117, [5-(2-fluorophenyl)isoxazol-3-yl]-[4-(1,3,5-trimethylpyrazol-4-yl)-3,4-dihydro-1H-isoquinolin-2-yl]methanone]
≥ 80%: inhibition of growth at 20 ppm [1] | inhibition of growth at 20 ppm [3] | inhibition of growth at 20 ppm [4] | inhibition of growth at 20 ppm [5] | pest or weed control at 200 ppm [7] | pest or weed control at 200 ppm [9]

Cn1cc(C2CN(C(=O)c3cc(-c4ccc(F)cc4F)no3)Cc3ccccc32)cn1 (centres unmarked) [Compound P-151, [3-(2,4-difluorophenyl)isoxazol-5-yl]-[4-(1-methylpyrazol-4-yl)-3,4-dihydro-1H-isoquinolin-2-yl]methanone]
≥ 80%: inhibition of growth at 20 ppm [1] | pest or weed control at 200 ppm [2] | inhibition of growth at 20 ppm [3] | inhibition of growth at 20 ppm [4] | inhibition of growth at 20 ppm [5] | inhibition of growth at 20 ppm [6] | pest or weed control at 200 ppm [7] | pest or weed control at 200 ppm [8] | pest or weed control at 200 ppm [9]

C#Cc1ccc(-c2cc(C(=O)N3Cc4ccccc4C(c4cnn(C)c4)C3)no2)c(F)c1 (centres unmarked) [Compound P-31, [5-(4-ethynyl-2-fluoro-phenyl)isoxazol-3-yl]-[4-(1-methylpyrazol-4-yl)-3,4-dihydro-1H-isoquinolin-2-yl]methanone]
≥ 80%: pest or weed control at 200 ppm [10]

Cc1c(C2CN(C(=O)c3cc(-c4ccc(F)cc4)on3)Cc3ccccc32)cnn1C (centres unmarked) [Compound P-120, [4-(1,5-dimethylpyrazol-4-yl)-3,4-dihydro-1H-isoquinolin-2-yl]-[5-(4-fluorophenyl)isoxazol-3-yl]methanone]
≥ 80%: inhibition of growth at 20 ppm [1] | pest or weed control at 200 ppm [2] | inhibition of growth at 20 ppm [3] | inhibition of growth at 20 ppm [4] | inhibition of growth at 20 ppm [5] | inhibition of growth at 20 ppm [6] | pest or weed control at 200 ppm [7] | pest or weed control at 200 ppm [9]

Cc1ccc2c(c1)C(C)(c1cnn(C)c1)CN(C(=O)c1cc(-c3ccc(F)cc3F)on1)C2C (centres unmarked) [Compound P-216, [5-(2,4-difluorophenyl)isoxazol-3-yl]-[1,4,6-trimethyl-4-(1-methylpyrazol-4-yl)-1,3-dihydroisoquinolin-2-yl]methanone]
≥ 80%: inhibition of growth at 20 ppm [1] | inhibition of growth at 20 ppm [4] | inhibition of growth at 20 ppm [5] | inhibition of growth at 20 ppm [6] | pest or weed control at 200 ppm [7]
